Test system: MV-4-11 cells
Test: Gene expression microarray analysis (Affymetrix PrimeView) and GSEA
Assay type: cell-based, human
Parameters: RFU PODN (11730768_x_at) / Fold change /veh PODN (11730768_x_at) / RFU LINC00158 (11744669_a_at) / Fold change /veh LINC00158 (11744669_a_at) / RFU DUSP10 (11751237_a_at) / Fold change /veh DUSP10 (11751237_a_at) / RFU ID3 (11757404_x_at) / Fold change /veh ID3 (11757404_x_at) / RFU PLEKHG5 (11737974_s_at) / Fold change /veh PLEKHG5 (11737974_s_at) / RFU LRRC4B (11730491_at) / Fold change /veh LRRC4B (11730491_at) / RFU GIMAP4 (11747438_a_at) / Fold change /veh GIMAP4 (11747438_a_at) / RFU KRT8 (11758183_x_at) / Fold change /veh KRT8 (11758183_x_at) / RFU CNN1 (11734310_a_at) / Fold change /veh CNN1 (11734310_a_at) / RFU VPS37D (11726825_at) / Fold change /veh VPS37D (11726825_at) / RFU C10orf10 (11716522_x_at) / Fold change /veh C10orf10 (11716522_x_at) / RFU KIR2DL2 /// KIR2DL4 /// KIR2DL5A /// KIR2DL5B /// KIR2DS1 /// KIR2DS2 /// KIR2DS3 /// KIR2DS4 /// KIR3DL3 /// KIR3DL3 /// KIR3DS1 (11738374_at) / Fold change /veh KIR2DL2 /// KIR2DL4 /// KIR2DL5A /// KIR2DL5B /// KIR2DS1 /// KIR2DS2 /// KIR2DS3 /// KIR2DS4 /// KIR3DL3 /// KIR3DL3 /// KIR3DS1 (11738374_at) / RFU C1QL1 (11718748_at) / Fold change /veh C1QL1 (11718748_at) / RFU TMPRSS4 (11747572_a_at) / Fold change /veh TMPRSS4 (11747572_a_at) / RFU HAMP (11756126_x_at) / Fold change /veh HAMP (11756126_x_at) / RFU RNFT2 (11725882_a_at) / Fold change /veh RNFT2 (11725882_a_at) / RFU NR4A2 (11747474_a_at) / Fold change /veh NR4A2 (11747474_a_at) / RFU ABCC12 (11746883_a_at) / Fold change /veh ABCC12 (11746883_a_at) / RFU TMEM136 (11760407_x_at) / Fold change /veh TMEM136 (11760407_x_at) / RFU CLDN22 /// WWC2 (11732394_at) / Fold change /veh CLDN22 /// WWC2 (11732394_at) / RFU HLA-DPB1 (11760878_x_at) / Fold change /veh HLA-DPB1 (11760878_x_at) / RFU SPINT1 (11716480_a_at) / Fold change /veh SPINT1 (11716480_a_at) / RFU GAP43 (11754022_s_at) / Fold change /veh GAP43 (11754022_s_at) / RFU A4GNT (11735810_at) / Fold change /veh A4GNT (11735810_at) / RFU PRB3 (11715151_x_at) / Fold change /veh PRB3 (11715151_x_at) / RFU TUBB4B (11761932_at) / Fold change /veh TUBB4B (11761932_at) / RFU CAPN14 (11732068_a_at) / Fold change /veh CAPN14 (11732068_a_at) / RFU TMCC2 (11721928_a_at) / Fold change /veh TMCC2 (11721928_a_at) / RFU IRGQ (11745062_a_at) / Fold change /veh IRGQ (11745062_a_at) / RFU FAM174B (11720279_a_at) / Fold change /veh FAM174B (11720279_a_at) / RFU TMPRSS4 (11748680_a_at) / Fold change /veh TMPRSS4 (11748680_a_at) / RFU FAM212B (11763350_a_at) / Fold change /veh FAM212B (11763350_a_at) / RFU PLEKHG5 (11743358_a_at) / Fold change /veh PLEKHG5 (11743358_a_at) / RFU ZSCAN30 (11745921_a_at) / Fold change /veh ZSCAN30 (11745921_a_at) / RFU CMKLR1 (11741424_a_at) / Fold change /veh CMKLR1 (11741424_a_at) / RFU LOC101060620 /// MAPK8IP1 (11723275_at) / Fold change /veh LOC101060620 /// MAPK8IP1 (11723275_at) / RFU SPTSSB (11747773_x_at) / Fold change /veh SPTSSB (11747773_x_at) / RFU PRSS12 (11739890_at) / Fold change /veh PRSS12 (11739890_at) / RFU BIN1 (11741810_x_at) / Fold change /veh BIN1 (11741810_x_at) / RFU WNT11 (11732464_a_at) / Fold change /veh WNT11 (11732464_a_at) / RFU C10orf10 (11716521_a_at) / Fold change /veh C10orf10 (11716521_a_at) / RFU C5orf56 (11738089_at) / Fold change /veh C5orf56 (11738089_at) / RFU CYB561 (11721691_x_at) / Fold change /veh CYB561 (11721691_x_at) / RFU ANKRD19P (11752326_a_at) / Fold change /veh ANKRD19P (11752326_a_at) / RFU OR2T12 /// OR2T33 /// OR2T8 (11738714_s_at) / Fold change /veh OR2T12 /// OR2T33 /// OR2T8 (11738714_s_at) / RFU VCAN (11748164_a_at) / Fold change /veh VCAN (11748164_a_at) / RFU JSRP1 (11732532_at) / Fold change /veh JSRP1 (11732532_at) / RFU KRTAP10-11 (11738290_x_at) / Fold change /veh KRTAP10-11 (11738290_x_at) / RFU MYO3A (11730013_a_at) / Fold change /veh MYO3A (11730013_a_at) / RFU EBF3 (11725865_a_at) / Fold change /veh EBF3 (11725865_a_at) / RFU CAMK2N1 (11719241_x_at) / Fold change /veh CAMK2N1 (11719241_x_at) / RFU C5orf56 (11738088_a_at) / Fold change /veh C5orf56 (11738088_a_at) / RFU OLFML3 (11715873_a_at) / Fold change /veh OLFML3 (11715873_a_at) / RFU LOC100653217 /// NTM (11731650_a_at) / Fold change /veh LOC100653217 /// NTM (11731650_a_at) / RFU MAPK11 (11762145_a_at) / Fold change /veh MAPK11 (11762145_a_at) / RFU FIZ1 (11724087_x_at) / Fold change /veh FIZ1 (11724087_x_at) / RFU OASL (11726364_x_at) / Fold change /veh OASL (11726364_x_at) / RFU SOX15 (11748057_x_at) / Fold change /veh SOX15 (11748057_x_at) / RFU CD79A (11719716_a_at) / Fold change /veh CD79A (11719716_a_at) / RFU HIST1H1D (11736915_at) / Fold change /veh HIST1H1D (11736915_at) / RFU CASKIN2 (11723855_a_at) / Fold change /veh CASKIN2 (11723855_a_at) / RFU LOC730098 (11760151_x_at) / Fold change /veh LOC730098 (11760151_x_at) / RFU OR4N2 (11742367_at) / Fold change /veh OR4N2 (11742367_at) / RFU PRRT2 (11749266_a_at) / Fold change /veh PRRT2 (11749266_a_at) / RFU SNX32 (11753110_a_at) / Fold change /veh SNX32 (11753110_a_at) / RFU CDHR5 (11726645_a_at) / Fold change /veh CDHR5 (11726645_a_at) / RFU RCAN1 (11760418_a_at) / Fold change /veh RCAN1 (11760418_a_at) / RFU FAM167A (11723789_a_at) / Fold change /veh FAM167A (11723789_a_at) / RFU FAM26E (11764081_at) / Fold change /veh FAM26E (11764081_at) / RFU ISYNA1 (11749810_s_at) / Fold change /veh ISYNA1 (11749810_s_at) / RFU ACY1 (11761880_at) / Fold change /veh ACY1 (11761880_at) / RFU 11764098_at / Fold change /veh 11764098_at / RFU SAMD14 (11745864_x_at) / Fold change /veh SAMD14 (11745864_x_at) / RFU NPB (11741838_a_at) / Fold change /veh NPB (11741838_a_at) / RFU TMPRSS6 (11731388_a_at) / Fold change /veh TMPRSS6 (11731388_a_at) / RFU KRTAP10-2 (11738614_at) / Fold change /veh KRTAP10-2 (11738614_at) / RFU ARHGAP8 /// PRR5-ARHGAP8 (11727945_x_at) / Fold change /veh ARHGAP8 /// PRR5-ARHGAP8 (11727945_x_at) / RFU KRTAP5-7 /// NADSYN1 (11734609_at) / Fold change /veh KRTAP5-7 /// NADSYN1 (11734609_at) / RFU RASL12 (11751679_a_at) / Fold change /veh RASL12 (11751679_a_at) / RFU CDKN2B (11736163_a_at) / Fold change /veh CDKN2B (11736163_a_at) / RFU PRF1 (11729649_at) / Fold change /veh PRF1 (11729649_at) / RFU, ZNF638 /// ZNF638-IT1 / Fold change vs veh, ZNF638 /// ZNF638-IT1 / RFU, PANK3 / Fold change vs veh, PANK3 / RFU, SH3YL1 / Fold change vs veh, SH3YL1 / RFU, ZEB2 / Fold change vs veh, ZEB2 / RFU, NRIP1 / Fold change vs veh, NRIP1 / RFU, PTTG1IP / Fold change vs veh, PTTG1IP / RFU, CAPN2 / Fold change vs veh, CAPN2 / RFU, MED14 / Fold change vs veh, MED14 / RFU, SNORA58 / Fold change vs veh, SNORA58 / RFU, C1orf63 / Fold change vs veh, C1orf63 / RFU, LRRFIP1 / Fold change vs veh, LRRFIP1 / RFU, NDUFAF7 / Fold change vs veh, NDUFAF7 / RFU, SLC12A2 / Fold change vs veh, SLC12A2 / RFU, IBTK / Fold change vs veh, IBTK / RFU, ESF1 / Fold change vs veh, ESF1 / Fold change vs veh, TMEM50B / RFU, TAOK1 / Fold change vs veh, TAOK1 / RFU, ACBD3 / Fold change vs veh, ACBD3 / RFU, TMA16 / Fold change vs veh, TMA16 / RFU, RWDD3 / Fold change vs veh, RWDD3 / RFU, BCAT1 / Fold change vs veh, BCAT1 / RFU, EDEM3 / Fold change vs veh, EDEM3 / RFU, TMEM33 / Fold change vs veh, TMEM33 / RFU, WDR75 / Fold change vs veh, WDR75 / RFU, AHCTF1 / Fold change vs veh, AHCTF1 / RFU, TFRC / Fold change vs veh, TFRC / RFU, ZDHHC17 / Fold change vs veh, ZDHHC17 / RFU, NOM1 / Fold change vs veh, NOM1 / RFU, ARL8B / Fold change vs veh, ARL8B / RFU, ZBTB11 / Fold change vs veh, ZBTB11 / RFU, TAMM41 / Fold change vs veh, TAMM41 / RFU, KIAA1704 /// LOC100996395 / Fold change vs veh, KIAA1704 /// LOC100996395 / RFU, ING1 / Fold change vs veh, ING1 / RFU, TRMT61B / Fold change vs veh, TRMT61B / RFU, FUBP3 / Fold change vs veh, FUBP3 / RFU, TP53 / Fold change vs veh, TP53 / RFU, TNKS2 / Fold change vs veh, TNKS2 / RFU, ZFP14 / Fold change vs veh, ZFP14 / RFU, ACTR2 / Fold change vs veh, ACTR2 / RFU, PPP3R1 / Fold change vs veh, PPP3R1 / RFU, PIK3R1 / Fold change vs veh, PIK3R1 / RFU, HNRNPA1 / Fold change vs veh, HNRNPA1 / RFU, RNF170 / Fold change vs veh, RNF170 / RFU, ZNF28 / Fold change vs veh, ZNF28 / RFU, RNGTT / Fold change vs veh, RNGTT / RFU, OGT / Fold change vs veh, OGT / RFU, BRD1 / Fold change vs veh, BRD1 / RFU, MARS / Fold change vs veh, MARS / RFU, ZNF655 / Fold change vs veh, ZNF655 / RFU, FAHD1 / Fold change vs veh, FAHD1 / RFU, BDP1 / Fold change vs veh, BDP1 / RFU, LRRCC1 / Fold change vs veh, LRRCC1 / RFU, ARID1A / Fold change vs veh, ARID1A / RFU, ZNF146 / Fold change vs veh, ZNF146 / RFU, ZNF330 / Fold change vs veh, ZNF330 / RFU, GPN3 / Fold change vs veh, GPN3 / RFU, C9orf123 / Fold change vs veh, C9orf123 / RFU, N4BP2L2 / Fold change vs veh, N4BP2L2 / RFU, ARFIP1 / Fold change vs veh, ARFIP1 / RFU, FAM179B / Fold change vs veh, FAM179B / RFU, BCL10 / Fold change vs veh, BCL10 / RFU, UHRF1BP1L / Fold change vs veh, UHRF1BP1L / RFU, BET1 / Fold change vs veh, BET1 / RFU, CNOT2 / Fold change vs veh, CNOT2 / RFU, ZNF268 / Fold change vs veh, ZNF268 / Fold change vs veh, ZNF507 / RFU, DGCR2 / Fold change vs veh, DGCR2 / RFU, WDSUB1 / Fold change vs veh, WDSUB1 / Fold change vs veh, HSP90B1 /// MIR3652 / RFU, ADSS / Fold change vs veh, ADSS / RFU, GK / Fold change vs veh, GK / RFU, ZNF148 / Fold change vs veh, ZNF148 / RFU, TAF9 / Fold change vs veh, TAF9 / RFU, SLC1A5 / Fold change vs veh, SLC1A5 / RFU, SLMO2 / Fold change vs veh, SLMO2 / RFU, ABCC4 / Fold change vs veh, ABCC4 / RFU, LOC101060439 /// RAP1B / Fold change vs veh, LOC101060439 /// RAP1B / RFU, RFX7 / Fold change vs veh, RFX7 / RFU, GTPBP10 / Fold change vs veh, GTPBP10 / RFU, CNEP1R1 / Fold change vs veh, CNEP1R1 / RFU, BIVM-ERCC5 /// ERCC5 / Fold change vs veh, BIVM-ERCC5 /// ERCC5 / RFU, ILF3 / Fold change vs veh, ILF3 / RFU 11762660_at / Fold change /veh 11762660_at / RFU VCAN (11757783_s_at) / Fold change /veh VCAN (11757783_s_at) / RFU DDX43 (11728927_at) / Fold change /veh DDX43 (11728927_at) / RFU KRT8 (11758188_x_at) / Fold change /veh KRT8 (11758188_x_at) / RFU NKD1 (11759106_at) / Fold change /veh NKD1 (11759106_at) / RFU SRD5A1 (11742802_a_at) / Fold change /veh SRD5A1 (11742802_a_at) / RFU TPSAB1 /// TPSB2 (11721975_s_at) / Fold change /veh TPSAB1 /// TPSB2 (11721975_s_at) / RFU GSTM3 (11746129_a_at) / Fold change /veh GSTM3 (11746129_a_at) / RFU IL23R (11737362_x_at) / Fold change /veh IL23R (11737362_x_at) / RFU TMEM51 (11727254_a_at) / Fold change /veh TMEM51 (11727254_a_at) / RFU PIWIL2 (11732686_x_at) / Fold change /veh PIWIL2 (11732686_x_at) / RFU ORM1 (11744905_x_at) / Fold change /veh ORM1 (11744905_x_at) / RFU CCDC152 (11743942_at) / Fold change /veh CCDC152 (11743942_at) / RFU ECM1 (11717891_a_at) / Fold change /veh ECM1 (11717891_a_at) / RFU IL23R (11748794_a_at) / Fold change /veh IL23R (11748794_a_at) / RFU TNFAIP8L3 (11732012_x_at) / Fold change /veh TNFAIP8L3 (11732012_x_at) / RFU MBOAT4 (11741988_at) / Fold change /veh MBOAT4 (11741988_at) / RFU 11764193_at / Fold change /veh 11764193_at / RFU TMEM53 (11763286_at) / Fold change /veh TMEM53 (11763286_at) / RFU MAGEB2 (11727129_at) / Fold change /veh MAGEB2 (11727129_at) / RFU TMEM200A (11744735_a_at) / Fold change /veh TMEM200A (11744735_a_at) / RFU CCDC152 (11751479_a_at) / Fold change /veh CCDC152 (11751479_a_at) / RFU FAM211A (11726209_a_at) / Fold change /veh FAM211A (11726209_a_at) / RFU RGS16 (11746705_a_at) / Fold change /veh RGS16 (11746705_a_at) / RFU VCAN (11755009_s_at) / Fold change /veh VCAN (11755009_s_at) / RFU RHOB (11743442_s_at) / Fold change /veh RHOB (11743442_s_at) / RFU RGS16 (11720943_a_at) / Fold change /veh RGS16 (11720943_a_at) / RFU RGS16 (11720944_at) / Fold change /veh RGS16 (11720944_at) / RFU, VPS4B / Fold change vs veh, VPS4B / RFU, CREB1 / Fold change vs veh, CREB1 / RFU, DNAJC13 / Fold change vs veh, DNAJC13 / RFU, GNAQ / Fold change vs veh, GNAQ / RFU, CDK5R1 / Fold change vs veh, CDK5R1 / RFU, ZRANB3 / Fold change vs veh, ZRANB3 / RFU, CUL4A / Fold change vs veh, CUL4A / RFU, CCNY / Fold change vs veh, CCNY / RFU, UFL1 / Fold change vs veh, UFL1 / RFU, COG3 / Fold change vs veh, COG3 / RFU, DIAPH2 / Fold change vs veh, DIAPH2 / RFU, SKA2 / Fold change vs veh, SKA2 / RFU, AFF3 / Fold change vs veh, AFF3 / RFU, LMF1 / Fold change vs veh, LMF1 / RFU, IPO11 / Fold change vs veh, IPO11 / RFU, DFFB / Fold change vs veh, DFFB / RFU, FOXP1 / Fold change vs veh, FOXP1 / RFU, CARD8 / Fold change vs veh, CARD8 / RFU, STRN3 / Fold change vs veh, STRN3 / RFU, ADK / Fold change vs veh, ADK / RFU, RASSF2 / Fold change vs veh, RASSF2 / RFU, WIPF1 / Fold change vs veh, WIPF1 / RFU, LARP1B / Fold change vs veh, LARP1B / RFU, RASA1 / Fold change vs veh, RASA1 / RFU, RB1 / Fold change vs veh, RB1 / RFU, PPFIA1 / Fold change vs veh, PPFIA1 / RFU, MAT2A / Fold change vs veh, MAT2A / RFU, CCT5 / Fold change vs veh, CCT5 / RFU, WDR92 / Fold change vs veh, WDR92 / RFU, CUX1 / Fold change vs veh, CUX1 / RFU, TTC7A / Fold change vs veh, TTC7A / RFU, TMEM135 / Fold change vs veh, TMEM135 / RFU, DEPTOR / Fold change vs veh, DEPTOR / RFU, CPM / Fold change vs veh, CPM / RFU, DNAJB6 / Fold change vs veh, DNAJB6 / RFU, CACNA2D3 / Fold change vs veh, CACNA2D3 / RFU, DTX4 / Fold change vs veh, DTX4 / RFU, TFCP2 / Fold change vs veh, TFCP2 / RFU, GMCL1 /// GMCL1P1 / Fold change vs veh, GMCL1 /// GMCL1P1 / RFU, AEBP2 / Fold change vs veh, AEBP2 / RFU, SNHG1 /// SNORD22 /// SNORD25 /// SNORD26 /// SNORD27 /// SNORD28 /// SNORD29 /// SNORD31 / Fold change vs veh, SNHG1 /// SNORD22 /// SNORD25 /// SNORD26 /// SNORD27 /// SNORD28 /// SNORD29 /// SNORD31 / Fold change (Aza/veh), C12orf56 (ProbeSet 11735607_a_at) / Fold change (ACY-1035/veh), C12orf56 (ProbeSet 11735607_a_at) / Fold change (Aza/veh), FGFR1OP (ProbeSet 11751329_s_at) / Fold change (ACY-1035/veh), FGFR1OP (ProbeSet 11751329_s_at) / Fold change (Aza/veh), VPS36 (ProbeSet 11739960_a_at) / Fold change (ACY-1035/veh), VPS36 (ProbeSet 11739960_a_at) / RFU SYPL1 (11715823_x_at) / Fold change /veh SYPL1 (11715823_x_at) / RFU IGFBP7 (11715501_s_at) / Fold change /veh IGFBP7 (11715501_s_at) / RFU REEP3 (11722064_at) / Fold change /veh REEP3 (11722064_at) / RFU IGLL1 (11728026_x_at) / Fold change /veh IGLL1 (11728026_x_at): dose or concentration left out as unconfirmed
Details: ProbeSet 11725100_s_at; LIST B

Nc1ncn([C@@H]2O[C@H](CO)[C@@H](O)[C@H]2O)c(=O)n1 [azacitidine]
RFU, ESF1: 107.31 RFU

Source: article PMC5218480 (PLoS ONE, 2017)
